# Data reported in patent US10149860B2, “Compositions and methods for treating alzheimer's disease and other tauopathies” (Board of Trustees Of The Leland Stanford Junior University, priority 2013, dated 2018).
# What was measured:
# PS19 mice = experiment: Passive avoidance test in PS19 tauopathy mice; format: in vivo; conditions: WP1130-treated PS19 mice vs wt and vehicle treated PS19 mice; FIG. 28
# Description: The passive avoidance test was used to test whether WP1130 could rescue the learning and memory deficits expressed in the PS19 mice. During training, the animals were subjected to electric shock on the foot in the dark chamber. During testing, the trained animals were placed in the light chamber and the time it took the animals to enter the dark chamber (latency time) was recorded. […] (Top) A diagram showing the passive-avoidance test, in which animals were allow to freely moving between the light and dark chambers during habituation. During training, the animals were subjected to electric shock on the foot in the dark chamber. During testing, the trained animals were placed in the light chamber and the time it took the animals to enter the dark chamber (latency time) was recorded. (Bottom) Statistical analysis of the latency times of vehicle-treated WT control, vehicle-treated PS19 tauopathy mice, and drug-treated PS19 tauopathy during the habituation, training, and testing periods. ** indicates P<0.01 in Student's t-test.
# MARK4 [1] = experiment: Western blot of MARK4 in brain extracts of PS19 tauopathy mice after ICV infusion; format: in vivo; conditions: relative to vehicle controls, FIG. 27
# Description: (§1) To test the effects of WP1130 in a mammalian model of AD, the drug was administered to Tauopathy mice (PS19) expressing the pathogenic P301S human tau transgene. Mice received intracerebroventricular (ICV) infusion of either WP1130 or vehicle controls and MARK4 and p-Tau levels were assessed by western blot. […] Tauopathy mice (PS19) expressing the pathogenic P301S human tau transgene were treated with vehicle (#1, 2, 4, 6, 12) or WP1130 (#5, 8, 13, 14, 15) by intracerebroventricular (ICV) infusion, and brain extracts were subjected to Western blot analysis with the indicated antibodies. Actin serves as a loading control, and T14 anti-Tau antibody measures levels of total tau. Note the reduction of MARK4 and p-Tau (S262) protein levels by drug treatment.
# MARK4 [2] = experiment: Western blot of MARK4 stability in HEK 293T cells transfected with hMARK4-HA; format: cell-based, human; conditions: HEK 293T cells with hMARK4-HA; 5 μM WP1130 for 8 h; FIG. 25a
# Description: (§2) HEK 293T cells transfected with the hMARK4-HA plasmids were treated with 5 μM WP1130 for 8 h and subsequently used for western blot analysis. Actin serves as loading control. […] Cultured HEK 293T cells were treated with 0, 2, 5 and 10 μM WP1130 for 12 h, and used for western blot analysis. Actin serves as loading control.
# [3] = test system: htau phosphorylation at 12E8 sites; experiment: Western blot of 12E8-positive htauM level in WP1130-fed flies; format: in vivo, Drosophila; conditions: WP1130 10 μM vs DMSO; FIG. 26d
# Description: (§3) For Western blot analysis, the primary antibodies used were: anti-PAR-1 (1:8,000), anti-phospho-PAR-1 (1:1,000); anti-HA (1:2,000, Sigma); anti-Myc (1:1,000, Millipore); anti-GFP (1:2,000, Abcam); anti-Dlg (4F3) (1:1,000, Hybridoma bank, University of Iowa); 12E8 (1:8,000); anti-Actin (1:40,000, Sigma); anti-Gapdh (1:3,000, Abcam).
# (§4) Either WP1130 (Selleck Chemicals) or DMSO (Sigma) was added to fly food at 2, 5 or 10 μM concentrations. Feeding third instar larvae were collected from the drug-containing food and dissected in PBS. Besides Mhc-GAL4>UAS-APP, which were raised at 29° C., all flies were raised at 25° C.
# (§5) To investigate whether WP1130 may act as an inhibitor of FAF to control PAR-1 activity in vivo, Mhc-Gal4>PAR-1 and control Mhc-Gal4/+ animals were fed with fly food containing WP1130 or DMSO alone. […]
# (§6) (a) Quantification of the pharmacological effect of WP1130 on the total number of boutons on muscle 6/7 of A3, after normalization with bouton area. […] (c) Quantification of NMJ bouton number showing rescue by WP1130 (10 μM) of the bouton-loss phenotypes induced by Mhc-Gal4>UAS-htauM or Mhc-Gal4>UAS-htauM+UAS-PAR-1. […] (e) Quantification of NMJ bouton number showing rescue by WP1130 (10 μM) of the bouton-loss phenotypes induced the expression APP/Aβ-42. […]
# PAR-1 = experiment: Western blot of PAR-1-Myc levels in third instar larvae body-wall muscle extracts; format: in vivo, Drosophila; conditions: Mhc-Gal4>PAR-1 larvae; WP1130 10 μM vs DMSO; FIG. 26b
# Description: as §3, §4, §5, §6
# [4] = test system: endogenous tau phosphorylation at the MARK sites; experiment: Western blot of endogenous tau phosphorylation (12E8 antibody) in HEK 293T cells; format: cell-based, human; conditions: 0, 2, 5 and 10 μM WP1130 for 12 h, FIG. 25b
# Description: as §2
# FAF = molecular target: T1, FAF (Drosophila melanogaster, UniProt P55824); experiment: Drosophila larval NMJ bouton number after feeding WP1130 in fly food; format: in vivo
# T1 construct: Mhc-Gal4>PAR-1 and control Mhc-Gal4/+ animals were fed with fly food containing WP1130 or DMSO alone; endogenous in cells; host or cells: Drosophila third instar larvae (body-wall muscle / NMJ)
# T1 sequence (P55824 whole entry, the tested form may be a part): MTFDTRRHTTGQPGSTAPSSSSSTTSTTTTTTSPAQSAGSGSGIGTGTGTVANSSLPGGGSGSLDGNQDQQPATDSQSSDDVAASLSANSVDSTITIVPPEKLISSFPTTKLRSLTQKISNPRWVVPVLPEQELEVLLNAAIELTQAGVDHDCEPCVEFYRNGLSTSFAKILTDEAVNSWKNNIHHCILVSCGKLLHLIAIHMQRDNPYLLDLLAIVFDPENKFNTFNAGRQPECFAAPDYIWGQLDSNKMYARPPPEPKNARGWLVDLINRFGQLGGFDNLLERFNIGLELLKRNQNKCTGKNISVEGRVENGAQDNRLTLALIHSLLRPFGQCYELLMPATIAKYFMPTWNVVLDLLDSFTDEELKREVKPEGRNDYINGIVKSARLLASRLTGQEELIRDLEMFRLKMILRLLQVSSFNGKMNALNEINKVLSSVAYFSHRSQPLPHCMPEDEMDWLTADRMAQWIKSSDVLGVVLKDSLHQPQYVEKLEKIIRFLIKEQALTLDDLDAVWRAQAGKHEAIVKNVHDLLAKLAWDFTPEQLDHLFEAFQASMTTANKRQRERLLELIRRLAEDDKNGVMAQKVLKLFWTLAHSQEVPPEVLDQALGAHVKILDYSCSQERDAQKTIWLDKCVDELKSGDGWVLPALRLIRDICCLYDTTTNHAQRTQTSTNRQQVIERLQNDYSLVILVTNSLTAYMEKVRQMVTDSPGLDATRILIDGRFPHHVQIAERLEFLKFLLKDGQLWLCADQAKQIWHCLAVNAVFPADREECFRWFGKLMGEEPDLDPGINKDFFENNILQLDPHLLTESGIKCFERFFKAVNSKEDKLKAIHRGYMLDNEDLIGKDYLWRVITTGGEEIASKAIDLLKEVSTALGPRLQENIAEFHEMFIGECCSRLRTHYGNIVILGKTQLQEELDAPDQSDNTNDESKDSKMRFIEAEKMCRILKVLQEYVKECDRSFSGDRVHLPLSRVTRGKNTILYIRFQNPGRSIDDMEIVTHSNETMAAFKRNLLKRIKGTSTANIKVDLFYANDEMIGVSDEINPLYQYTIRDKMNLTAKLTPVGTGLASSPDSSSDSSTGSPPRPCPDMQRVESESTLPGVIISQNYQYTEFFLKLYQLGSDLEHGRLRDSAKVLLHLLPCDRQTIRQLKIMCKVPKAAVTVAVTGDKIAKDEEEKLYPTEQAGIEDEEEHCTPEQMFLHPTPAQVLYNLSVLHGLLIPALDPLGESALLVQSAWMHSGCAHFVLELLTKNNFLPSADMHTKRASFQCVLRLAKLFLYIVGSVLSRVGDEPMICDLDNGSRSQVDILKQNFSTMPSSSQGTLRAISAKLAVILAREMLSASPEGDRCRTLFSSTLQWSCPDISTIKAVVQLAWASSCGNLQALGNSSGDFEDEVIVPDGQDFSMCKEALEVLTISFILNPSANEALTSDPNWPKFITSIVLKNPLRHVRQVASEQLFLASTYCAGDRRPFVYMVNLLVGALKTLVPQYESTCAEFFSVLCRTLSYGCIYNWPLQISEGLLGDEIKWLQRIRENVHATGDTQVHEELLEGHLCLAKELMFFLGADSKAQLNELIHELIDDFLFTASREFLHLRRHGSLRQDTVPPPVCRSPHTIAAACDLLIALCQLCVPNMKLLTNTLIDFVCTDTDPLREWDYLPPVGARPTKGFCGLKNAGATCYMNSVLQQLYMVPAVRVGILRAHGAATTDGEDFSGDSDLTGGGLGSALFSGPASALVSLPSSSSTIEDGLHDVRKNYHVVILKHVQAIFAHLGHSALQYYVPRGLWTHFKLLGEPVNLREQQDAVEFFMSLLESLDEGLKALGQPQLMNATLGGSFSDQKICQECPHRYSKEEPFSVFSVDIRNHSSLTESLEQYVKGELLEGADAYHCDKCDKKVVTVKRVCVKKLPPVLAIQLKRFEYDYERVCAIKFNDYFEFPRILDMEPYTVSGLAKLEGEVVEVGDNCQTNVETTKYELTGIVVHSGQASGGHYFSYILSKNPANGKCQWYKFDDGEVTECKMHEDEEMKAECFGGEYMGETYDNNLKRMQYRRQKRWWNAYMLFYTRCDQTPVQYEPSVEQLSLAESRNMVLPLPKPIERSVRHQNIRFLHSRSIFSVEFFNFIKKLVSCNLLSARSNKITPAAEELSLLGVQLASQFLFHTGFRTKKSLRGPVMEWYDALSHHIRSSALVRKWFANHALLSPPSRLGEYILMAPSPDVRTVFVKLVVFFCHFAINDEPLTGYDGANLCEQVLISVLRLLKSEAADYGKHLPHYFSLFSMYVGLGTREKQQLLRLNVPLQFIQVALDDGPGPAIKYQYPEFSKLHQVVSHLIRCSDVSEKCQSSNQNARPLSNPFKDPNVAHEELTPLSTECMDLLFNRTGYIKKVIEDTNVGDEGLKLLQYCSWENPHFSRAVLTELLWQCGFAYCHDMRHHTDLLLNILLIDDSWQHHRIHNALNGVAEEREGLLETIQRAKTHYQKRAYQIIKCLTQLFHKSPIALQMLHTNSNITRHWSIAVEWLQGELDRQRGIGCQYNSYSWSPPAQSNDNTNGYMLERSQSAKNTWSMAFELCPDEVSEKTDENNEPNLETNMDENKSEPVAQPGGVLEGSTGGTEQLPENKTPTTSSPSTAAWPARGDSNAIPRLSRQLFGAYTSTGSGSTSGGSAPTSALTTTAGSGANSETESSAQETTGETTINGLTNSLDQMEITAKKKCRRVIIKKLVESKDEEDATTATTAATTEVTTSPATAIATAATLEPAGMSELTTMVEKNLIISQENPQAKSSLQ
# Description: For immunohistochemistry, third instar lavae were selected, dissected in PBS, fixed in 4% formaldehyde (Ted Pella) in PBS for about 15 minutes and washed 3× in 0.1% Triton X-100 in PBS. The primary antibodies used were: anti-PAR-1 (1:10,000), anti-phospho-PAR-1 (1:1,000); anti-Slimb (1:1,000); anti-Dlg (4F3) (1:50, Hybridoma bank, University of Iowa); anti-GFP (1:8,000, Abcam); anti-dtau (1:3). Primary antibody incubation was performed at 4° C. overnight. All secondary antibodies (Molecular Probes) and Texas Red or FITC-conjugated anti-HRP (Jackson ImmunoResearch Laboratories) were used at 1:200 and incubated for about 2 hours at room temperature. Laval preparations were mounted in SlowFade Antifade kit (Invitrogen). Confocal images were collected from Leica confocal microscopes SP2 and SP5 equipped with 40× or 100× inverted NX oil lens. Leica Application Suite Advanced Fluorescence software was used to capture, process and analyze images. Analysis of the NMJ was performed essentially as described^51. All crosses for genetic interaction studies in the NMJ were performed at 25° C.
# as §4
# Fly eye sizes were measured on multiple samples (n>15) from both control and experimental genotypes using the NIH ImageJ software. Average eye size was presented as a normalized percentage of control eye size. We performed two-tailed unpaired Student's t-test to analyze the significance of differences between two groups. Quantification of NMJ bouton number was performed according to previously described protocols (Lee et al., 2010). NMJ bouton number is normalized by muscle area at muscle 6/7 in abdominal segment A3. The experimental genotypes were normalized relative to the control genotype.
# To investigate whether WP1130 may act as an inhibitor of FAF to control PAR-1 activity in vivo, Mhc-Gal4>PAR-1 and control Mhc-Gal4/+ animals were fed with fly food containing WP1130 or DMSO alone. […] Given the potent effect of WP1130 in modulating PAR-1 protein level, whether WP1130 would affect the phosphorylation of tau was tested.
# (a) Quantification of the pharmacological effect of WP1130 on the total number of boutons on muscle 6/7 of A3, after normalization with bouton area. Indicated genotype flies were incubated with 0, 2, 5 or 10 μM concentrations of WP1130. (b) Western blot analyses showing the effects of WP1130 (10 μM) on PAR-1-Myc levels in third instar larvae body-wall muscle extracts. Values represent normalized PAR-1-Myc levels. Actin serves as loading control. (c) Quantification of NMJ bouton number showing rescue by WP1130 (10 μM) of the bouton-loss phenotypes induced by Mhc-Gal4>UAS-htauM or Mhc-Gal4>UAS-htauM+UAS-PAR-1. (d) Western blot analysis showing reduced 12E8-positive htauM level by WP1130 (10 μM). Values represent normalized 12E8-positive htauM levels. Actin serves as loading control. (e) Quantification of NMJ bouton number showing rescue by WP1130 (10 μM) of the bouton-loss phenotypes induced the expression APP/Aβ-42. (f) A model depicting possible signaling pathways linking APP/Aβ-42 to synaptic dysfunction and synapse loss seen in AD. Dashed lines indicate potential direct regulations.
# [5] = test system: tau phosphorylation at the PAR-1/MARK target site (S262); experiment: Western blot of p-Tau (S262) in brain extracts of PS19 tauopathy mice after ICV infusion; format: in vivo; conditions: relative to vehicle controls, FIG. 27
# Description: as §1
compound,measurement,setting,value
"CCC[C@H](NC(=O)/C(C#N)=C/c1cccc(Br)n1)c1ccccc1 [WP1130, (S,E)-3-(6-bromopyridin-2-yl)-2-cyano-N-(1-phenylbutyl)acrylamide]",latency time to enter the dark chamber,PS19 mice,latency times comparable to that of wt
same,MARK4 level,MARK4 [1],significantly reduced
same,stability of MARK4,MARK4 [2],decreases the stability of MARK4
same,htau phosphorylation at 12E8 sites,[3],dramatically decreased
same,PAR-1 protein level,PAR-1,reducing PAR-1 protein level
same,endogenous tau phosphorylation at the MARK sites (12E8 antibody),[4],decreased endogenous tau phosphorylation
same,loss of NMJ bouton number caused by overexpression of PAR-1,"FAF; Mhc-Gal4>PAR-1 larvae, WP1130 in fly food at 0, 2, 5 or 10 μM vs DMSO, FIG. 26a",highly effective in preventing the loss of NMJ bouton number
same,bouton-loss phenotype caused by the co-expression of PAR-1 and htauM,"FAF; Mhc-Gal4>UAS-htauM+UAS-PAR-1, WP1130 10 μM vs DMSO, FIG. 26c",partially suppressed
same,bouton-loss phenotype caused by the postsynaptic toxicity of APP/Aβ-42,"FAF; WP1130 10 μM, FIG. 26e",effectively suppressed
same,synaptic-loss phenotype caused by postsynaptic co-expression of FAF and Slimb-ΔF,"FAF; WP1130 in fly food vs DMSO, FIG. 26a",blocked synaptic-loss phenotype
same,bouton-loss phenotype induced by Mhc-Gal4>UAS-htauM,"FAF; htauM alone, WP1130 10 μM, FIG. 26c",rescue
same,phosphorylated tau level,[5],significantly reduced
